Holding throughout (type): cell-based
Test [1] deals with Haemophilus influenzae 1218. Nature of the test: MIC, microtiter broth dilution (NCCLS M100-S14), H. influenzae 1218 (susceptible). The protocol: (§1) The assay described herein includes a panel of bacterial strains assembled to include a variety of target pathogenic species, including representatives of macrolide resistance mechanisms that have been characterized. In many cases, both the macrolide-susceptible parent strain and the macrolide-resistant strain derived from it are available to provide a more accurate assessment of the compound's ability to circumvent the resistance mechanism. The assay is performed in microtiter trays and interpreted according to Performance Standards for Antimicrobial Susceptibility Testing; 14th Informational Supplement (M100-S14), published by The National Committee for Clinical Laboratory Standards (NCCLS) guidelines; the MIC is used to compare strains. Compounds are initially dissolved in DMSO as 40 mg/ml stock solutions.
On the technique in general: Dilution methods test growth across graded concentrations, often in twofold steps.

Test [2] deals with Streptococcus pneumoniae 1016. Kind of test: MIC, microtiter broth dilution (NCCLS M100-S14), S. pneumoniae 1016 (susceptible). The protocol:
as §1

Test [3] relates to Streptococcus pyogenes 1079. Kind of test: MIC, microtiter broth dilution (NCCLS M100-S14), S. pyogenes 1079 (ermB). As for the experimental part:
as §1

Test [4] concerns Streptococcus pneumoniae 1095. The following applies: microtiter broth dilution. As for the experimental part: as §1
For test [5], the system named is Streptococcus pneumoniae 1175. The following applies: microtiter broth dilution. As for the experimental part: as §1

≈ marks a conversion by molar mass, not a printed value. Read-outs that look alike come from different tables or passages of the source.

Consider `CC[C@H]1OC(=O)[C@H](C)C(=O)[C@H](C)[C@@H](O[C@@H]2O[C@H](C)C[C@H](N(C)C)[C@H]2O)[C@](C)(OC)C[C@@H](C)C(=O)[C@H](C)[C@H]2N(CC3(O)CN(Cc4nc(C)[nH]c4C)C3)C(=O)O[C@]12C` [7.07], for which, in test [1] (H. influenzae 1218 (susceptible)), the “MIC H. influenzae 1218” value stood at 16 µg/mL (≈ 19.9 µM). Further, the “MIC S. pneumo. 1016” value in test [2] (S. pneumoniae 1016 (susceptible)) amounted to 0.12 µg/mL (≈ 0.149 µM). In addition, the “MIC S. pyogenes 1079” value in test [3] (S. pyogenes 1079 (ermB)) is >64.00 µg/mL. In addition, the “MIC S. pneumo. 1095” value in test [4] (S. pneumoniae 1095 (ermB)) stood at 8 µg/mL (≈ 9.93 µM). The “MIC S. pneumo. 1175” value in test [5] (S. pneumoniae 1175 (mefA)) was found to be 4 µg/mL (≈ 4.96 µM).

Regarding `CCC1OC(=O)C(C)C(=O)C(C)C(OC2OC(C)CC(N(C)C)C2O)C(C)(OC)CC(C)C(=O)C(C)C2N(C3CN(S(=O)(=O)c4cccnc4)C3)C(=O)OC12C` (stereo not drawn) [Example 3.01, 3-descladinosyl-11,12-dideoxy-6-O-methyl-3-oxo-12,11-(oxycarbonyl-(1-(pyridine-3-sulfonyl)-azetidin-3-yl)-imino)-erythromycin A], the “MIC H. influenzae 1218” value in test [1] (Haemophilus influenzae 1218) is 0.25 µg/mL (≈ 0.309 µM). Further, the “MIC S. pneumo. 1016” value in test [2] (Streptococcus pneumoniae 1016) was <0.06 µg/mL. Further, in test [3] (Streptococcus pyogenes 1079), the “MIC S. pyogenes 1079” value stood at 4 µg/mL (≈ 4.94 µM). Further, the “MIC S. pneumo. 1095” value in test [4] (Streptococcus pneumoniae 1095) is <0.06 µg/mL. Further, in test [5] (Streptococcus pneumoniae 1175), the “MIC S. pneumo. 1175” value was <0.06 µg/mL.

`CCOc1ccc(S(=O)(=O)N2CC(N3C(=O)OC4(C)C(CC)OC(=O)C(C)(F)C(=O)C(C)C(OC5OC(C)CC(N(C)C)C5O)C(C)(OC)CC(C)C(=O)C(C)C34)C2)cc1C#N` (stereo not drawn) [Example 3.103, 3-descladinosyl-11,12-dideoxy-2-fluoro-6-O-methyl-3-oxo-12,11-(oxycarbonyl-(1-(3-cyano-4-ethoxybenzene-1-sulfonyl)-azetidin-3-yl)-imino)-erythromycin A]: the “MIC H. influenzae 1218” value in test [1] (Haemophilus influenzae 1218) worked out at 2 µg/mL (≈ 2.23 µM). In test [2] (Streptococcus pneumoniae 1016), the “MIC S. pneumo. 1016” value was <0.063 µg/mL. In test [3] (Streptococcus pyogenes 1079), the “MIC S. pyogenes 1079” value stood at 0.5 µg/mL (≈ 0.559 µM). Further, the “MIC S. pneumo. 1095” value in test [4] (Streptococcus pneumoniae 1095) was <0.063 µg/mL. Also, in test [5] (Streptococcus pneumoniae 1175), the “MIC S. pneumo. 1175” value is <0.063 µg/mL.

Take `CCC1OC(=O)C(C)C(=O)C(C)C(OC2OC(C)CC(N(C)C)C2O)C(C)(OC)CC(C)C(=O)C(C)C2N(C3CN(Cc4c(F)cccc4OC)C3)C(=O)OC12C` (stereo not drawn) [Example 1.85, 3-descladinosyl-11,12-dideoxy-6-O-methyl-3-oxo-12,11-(oxycarbonyl-(1-(1-fluoro-3-methoxybenzene-2-methyl)-azetidin-3-yl)-imino)-erythromycin A]: the “MIC H. influenzae 1218” value in test [1] (Haemophilus influenzae 1218) came to 2 µg/mL (≈ 2.48 µM). For the same compound, the “MIC S. pneumo. 1016” value in test [2] (Streptococcus pneumoniae 1016) is <0.063 µg/mL. The “MIC S. pyogenes 1079” value in test [3] (Streptococcus pyogenes 1079) is 16 µg/mL (≈ 19.9 µM).

As to `CCC1OC(=O)C(C)C(=O)C(C)C(OC2OC(C)CC(N(C)C)C2O)C(C)(OC)CC(C)C(=O)C(C)C2N(C3CN(Cc4c(F)cccc4F)C3)C(=O)OC12C` (stereo not drawn) [Example 1.87, 3-descladinosyl-11,12-dideoxy-6-O-methyl-3-oxo-12,11-(oxycarbonyl-(1-(1,3-difluorobenzene-2-methyl)-azetidin-3-yl)-imino)erythromycin A], in test [1] (Haemophilus influenzae 1218), the “MIC H. influenzae 1218” value was determined as 0.5 µg/mL (≈ 0.63 µM). For the same compound, the “MIC S. pneumo. 1016” value in test [2] (Streptococcus pneumoniae 1016) was <0.063 µg/mL. For the same compound, in test [3] (Streptococcus pyogenes 1079), the “MIC S. pyogenes 1079” value came out at 8 µg/mL (≈ 10.1 µM).

Take `CCC1OC(=O)C(C)C(=O)C(C)C(OC2OC(C)CC(N(C)C)C2O)C(C)(OC)CC(C)C(=O)C(C)C2N(C3CN(S(=O)(=O)c4c(Cl)nc5sccn45)C3)C(=O)OC12C` (stereo not drawn) [Example 3.97, 3-descladinosyl-11,12-dideoxy-6-O-methyl-3-oxo-12,11-(oxycarbonyl-(1-(6-chloroimidazo[2,1-b]thiazole-5-sulfonyl)-azetidin-3-yl)-imino)-erythromycin A]: the “MIC H. influenzae 1218” value in test [1] (Haemophilus influenzae 1218) was 0.125 µg/mL (≈ 0.141 µM). Further, the “MIC S. pyogenes 1079” value in test [3] (Streptococcus pyogenes 1079) was determined as 1 µg/mL (≈ 1.13 µM). The “MIC S. pneumo. 1095” value in test [4] (Streptococcus pneumoniae 1095) turned out to be 0.25 µg/mL (≈ 0.281 µM). The “MIC S. pneumo. 1175” value in test [5] (Streptococcus pneumoniae 1175) is <0.063 µg/mL.

In the case of `CCC1OC(=O)C(C)C(=O)C(C)C(OC2OC(C)CC(N(C)C)C2O)C(C)(OC)CC(C)C(=O)C(C)C2N(C3CN(Cc4ccc(-n5ccnc5)cc4)C3)C(=O)OC12C` (stereo not drawn) [Example 1.57, 4-(imidazol-1-yl)benzyl], the “MIC H. influenzae 1218” value in test [1] (Haemophilus influenzae 1218) was found to be 1 µg/mL (≈ 1.21 µM). Moreover, the “MIC S. pyogenes 1079” value in test [3] (Streptococcus pyogenes 1079) was 64 µg/mL (≈ 77.7 µM). In test [4] (Streptococcus pneumoniae 1095), the “MIC S. pneumo. 1095” value is <0.06 µg/mL. Besides, the “MIC S. pneumo. 1175” value in test [5] (Streptococcus pneumoniae 1175) was <0.06 µg/mL.

For `CCC1OC(=O)C(C)C(=O)C(C)C(OC2OC(C)CC(N(C)C)C2O)C(C)(OC)CC(C)C(=O)C(C)C2N(C3CN(Cc4cccc(-n5ccnn5)c4)C3)C(=O)OC12C` (stereo not drawn) [Example 1.56, 3-([1,2,3]triazol-1-yl)benzyl], the “MIC H. influenzae 1218” value in test [1] (Haemophilus influenzae 1218) was found to be 1 µg/mL (≈ 1.21 µM). For the same compound, the “MIC S. pyogenes 1079” value in test [3] (Streptococcus pyogenes 1079) is >64.00 µg/mL. Further, in test [4] (Streptococcus pneumoniae 1095), the “MIC S. pneumo. 1095” value is <0.06 µg/mL. Further, the “MIC S. pneumo. 1175” value in test [5] (Streptococcus pneumoniae 1175) is <0.06 µg/mL.

`CCC1OC(=O)C(C)C(=O)C(C)C(OC2OC(C)CC(N(C)C)C2O)C(C)(OC)CC(C)C(=O)C(C)C2N(C3CN(Cc4ccccc4OC(F)(F)F)C3)C(=O)OC12C` (stereo not drawn) [Example 1.88, 3-descladinosyl-11,12-dideoxy-6-O-methyl-3-oxo-12,11-(oxycarbonyl-(1-(2-(trifluoromethoxy)benzene-1-methyl)-azetidin-3-yl)-imino)-erythromycin A]: the “MIC H. influenzae 1218” value in test [1] (Haemophilus influenzae 1218) was found to be 0.5 µg/mL (≈ 0.594 µM). Besides, the “MIC S. pneumo. 1016” value in test [2] (Streptococcus pneumoniae 1016) was <0.063 µg/mL. The “MIC S. pyogenes 1079” value in test [3] (Streptococcus pyogenes 1079) was 8 µg/mL (≈ 9.5 µM).
